Tested on: bile flow and bile solids
Assay: Choleretic activity: bile flow and bile solids after bile duct cannulation in normal anaesthetised rats
Assay type: in vivo
Conditions: 50 mg kg-1 i.d., bile collected 0-5 hours, mean ±SE
Description: The liver, by producing bile, plays an important role in digestion. The presence of bile in the intestine is necessary to accomplish the digestion and absorption of fats as well as absorption of the fat-soluble vitamins- A, D, E & K. Bile is also an important vehicle of excretion. It removes many drugs, toxins, bile pigments and various inorganic substances either derived from the diet or synthesized by the body as cholesterol or as cholic acid.
Effect on the liver bile flow of test drug and that of vehicle is carried out after cannulating the bile duct in normal anaesthesied rats. Bile collected is from each animal from 0-5 hours (Klaassen, 1969, Donal et al.1953). (Table 5)

C[C@H](CCC(=O)O)[C@H]1CC[C@H]2[C@@H]3C(=O)C[C@@H]4CC(=O)CC[C@]4(C)[C@H]3CC(=O)[C@]12C [DHC, Dehydrocholic acid, reference compound]
Bile parameters % Increase (as compared to normal) Bile flow: 38.40±2.76 ml%
Bile parameters % Increase (as compared to normal) Bile solids: 28.13±3.89 mg%

Reference: patent EP1509285B1, “SYNERGISTIC COMPOSITION OF TRANS-TETRACOS-15-ENOIC ACID AND APOCYNIN AND USE THEREOF” (COUNCIL OF SCIENTIFIC AND INDUSTRIAL RESEARCH, priority 2002, dated 2003)
